Blank lines part the entries; values can stand above or below the molecule they belong to.
Tested on: 313798-341-R-J2-PDC spheroids, viability
Test: Anticancer human tumor 313798-341-R-J2-PDC patient-derived cervical squamous cell carcinoma cell line growth inhibition [PI3K]
Settings: spheroids with HUVEC and MSC; for IC50: curve of first compound; for viability, T/C: stronger effect = lower value
Outline: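 Three cell types, namely tumor cells, endothelial cells and mesenchymal stem cells, formed each spheroid. Combinations with four PI3K inhibitors were screened at clinically achievable concentrations decreasing by half-log, and spheroid viability was recorded.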

[1] = second compound 0.0316 µM, first compound 0.0316 µM
[2] = second compound 0.0316 µM, first compound 0.1 µM
[3] = second compound 0.0316 µM, first compound 0.316 µM
[4] = second compound 0.0316 µM, first compound 1 µM
[5] = second compound 0.0316 µM, first compound 3.16 µM
[6] = second compound 0.0316 µM, first compound 10 µM
[7] = second compound 0.1 µM, first compound 0.0316 µM
[8] = second compound 0.1 µM, first compound 0.1 µM
[9] = second compound 0.1 µM, first compound 0.316 µM
[10] = second compound 0.1 µM, first compound 1 µM
[11] = second compound 0.1 µM, first compound 3.16 µM
[12] = second compound 0.1 µM, first compound 10 µM
[13] = second compound 0.316 µM, first compound 0.0316 µM
[14] = second compound 0.316 µM, first compound 0.1 µM
[15] = second compound 0.316 µM, first compound 0.316 µM
[16] = second compound 0.316 µM, first compound 1 µM
[17] = second compound 0.316 µM, first compound 3.16 µM
[18] = second compound 0.316 µM, first compound 10 µM
[19] = second compound 1 µM, first compound 0.0316 µM
[20] = second compound 1 µM, first compound 0.1 µM
[21] = second compound 1 µM, first compound 0.316 µM
[22] = second compound 1 µM, first compound 1 µM
[23] = second compound 1 µM, first compound 3.16 µM
[24] = second compound 1 µM, first compound 10 µM
[25] = second compound 3.16 µM, first compound 0.0316 µM
[26] = second compound 3.16 µM, first compound 0.1 µM
[27] = second compound 3.16 µM, first compound 0.316 µM
[28] = second compound 3.16 µM, first compound 1 µM
[29] = second compound 3.16 µM, first compound 3.16 µM
[30] = second compound 3.16 µM, first compound 10 µM
[31] = second compound 10 µM, first compound 0.0316 µM
[32] = second compound 10 µM, first compound 0.1 µM
[33] = second compound 10 µM, first compound 0.316 µM
[34] = second compound 10 µM, first compound 1 µM
[35] = second compound 10 µM, first compound 3.16 µM
[36] = second compound 10 µM, first compound 10 µM
[37] = second compound 0.0316 µM, first compound 0.00316 µM
[38] = second compound 0.0316 µM, first compound 0.01 µM
[39] = second compound 0.1 µM, first compound 0.00316 µM
[40] = second compound 0.1 µM, first compound 0.01 µM
[41] = second compound 0.316 µM, first compound 0.00316 µM
[42] = second compound 0.316 µM, first compound 0.01 µM
[43] = second compound 1 µM, first compound 0.00316 µM
[44] = second compound 1 µM, first compound 0.01 µM
[45] = second compound 3.16 µM, first compound 0.00316 µM
[46] = second compound 3.16 µM, first compound 0.01 µM
[47] = second compound 10 µM, first compound 0.00316 µM
[48] = second compound 10 µM, first compound 0.01 µM
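Further: spheroids exposed to compounds for seven days.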
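Wherever viability, T/C is given: 100% = DMSO vehicle control viability.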

- IC50 (second compound 0.0316 µM): 2080 nM
- IC50 (second compound 0.1 µM): 2770 nM
- IC50 (second compound 0.316 µM): 1620 nM
- IC50 (second compound 1 µM): 1420 nM
- IC50 (second compound 3.16 µM): 345 nM
- IC50 (second compound 10 µM): < 31.6 nM
Structure (SMILES): CC(C)NCC(C(=O)N1CCN(c2ncnc3c2C(C)CC3O)CC1)c1ccc(Cl)cc1 (stereo not drawn) + Cc1nc(NC(=O)N2CCCC2C(N)=O)sc1-c1ccnc(C(C)(C)C(F)(F)F)c1
- viability, T/C [1]: 118%
- viability, T/C [2]: 100%
- viability, T/C [3]: 88.7%
- viability, T/C [4]: 65.7%
- viability, T/C [5]: 37.8%
- viability, T/C [6]: 32.4%
- viability, T/C [7]: 107%
- viability, T/C [8]: 102%
- viability, T/C [9]: 87.8%
- viability, T/C [10]: 72.4%
- viability, T/C [11]: 45.3%
- viability, T/C [12]: 33.6%
- viability, T/C [13]: 101%
- viability, T/C [14]: 93%
- viability, T/C [15]: 94%
- viability, T/C [16]: 58.5%
- viability, T/C [17]: 39.9%
- viability, T/C [18]: 32.7%
- viability, T/C [19]: 84.9%
- viability, T/C [20]: 97.4%
- viability, T/C [21]: 86.2%
- viability, T/C [22]: 55.3%
- viability, T/C [23]: 39.2%
- viability, T/C [24]: 30.3%
- viability, T/C [25]: 65.9%
- viability, T/C [26]: 58.6%
- viability, T/C [27]: 49.4%
- viability, T/C [28]: 45.8%
- viability, T/C [29]: 32.7%
- viability, T/C [30]: 30.2%
- viability, T/C [31]: 34%
- viability, T/C [32]: 33.5%
- viability, T/C [33]: 34.6%
- viability, T/C [34]: 34.3%
- viability, T/C [35]: 27.8%
- viability, T/C [36]: 22.3%

- IC50 (second compound 0.0316 µM): > 1000 nM
- IC50 (second compound 0.1 µM): > 1000 nM
- IC50 (second compound 0.316 µM): > 1000 nM
- IC50 (second compound 1 µM): > 1000 nM
- IC50 (second compound 3.16 µM): > 1000 nM
- IC50 (second compound 10 µM): < 3.16 nM
Structure (SMILES): CCN1CCN(Cc2ccc(Nc3ncc(F)c(-c4cc(F)c5nc(C)n(C(C)C)c5c4)n3)nc2)CC1 + Cc1nc(NC(=O)N2CCCC2C(N)=O)sc1-c1ccnc(C(C)(C)C(F)(F)F)c1
- viability, T/C [37]: 106%
- viability, T/C [38]: 104%
- viability, T/C [1]: 109%
- viability, T/C [2]: 108%
- viability, T/C [3]: 131%
- viability, T/C [4]: 129%
- viability, T/C [39]: 100%
- viability, T/C [40]: 104%
- viability, T/C [7]: 111%
- viability, T/C [8]: 104%
- viability, T/C [9]: 126%
- viability, T/C [10]: 131%
- viability, T/C [41]: 96.9%
- viability, T/C [42]: 102%
- viability, T/C [13]: 112%
- viability, T/C [14]: 112%
- viability, T/C [15]: 114%
- viability, T/C [16]: 114%
- viability, T/C [43]: 93.2%
- viability, T/C [44]: 102%
- viability, T/C [19]: 94.2%
- viability, T/C [20]: 110%
- viability, T/C [21]: 88.2%
- viability, T/C [22]: 80.9%
- viability, T/C [45]: 63.6%
- viability, T/C [46]: 62.6%
- viability, T/C [25]: 56.2%
- viability, T/C [26]: 59.9%
- viability, T/C [27]: 58.4%
- viability, T/C [28]: 69%
- viability, T/C [47]: 37%
- viability, T/C [48]: 37.4%
- viability, T/C [31]: 34.3%
- viability, T/C [32]: 35.8%
- viability, T/C [33]: 41.4%
- viability, T/C [34]: 45.8%

- IC50 (second compound 0.0316 µM): 927 nM
- IC50 (second compound 0.1 µM): 831 nM
- IC50 (second compound 0.316 µM): 868 nM
- IC50 (second compound 1 µM): 572 nM
- IC50 (second compound 3.16 µM): 238 nM
- IC50 (second compound 10 µM): < 31.6 nM
Structure (SMILES): Cn1ncc(Cl)c1-c1cc(C(=O)NC(CN)Cc2cccc(F)c2)sc1Cl (stereo not drawn) + Cc1nc(NC(=O)N2CCCC2C(N)=O)sc1-c1ccnc(C(C)(C)C(F)(F)F)c1
- viability, T/C [1]: 109%
- viability, T/C [2]: 93.2%
- viability, T/C [3]: 70.3%
- viability, T/C [4]: 49.7%
- viability, T/C [5]: 34.5%
- viability, T/C [6]: 33.3%
- viability, T/C [7]: 108%
- viability, T/C [8]: 89%
- viability, T/C [9]: 72.1%
- viability, T/C [10]: 44.5%
- viability, T/C [11]: 33.6%
- viability, T/C [12]: 34.8%
- viability, T/C [13]: 102%
- viability, T/C [14]: 99.7%
- viability, T/C [15]: 72.2%
- viability, T/C [16]: 48.5%
- viability, T/C [17]: 34.5%
- viability, T/C [18]: 33.1%
- viability, T/C [19]: 76.5%
- viability, T/C [20]: 73.9%
- viability, T/C [21]: 56.5%
- viability, T/C [22]: 43.9%
- viability, T/C [23]: 34.3%
- viability, T/C [24]: 33.7%
- viability, T/C [25]: 59.5%
- viability, T/C [26]: 57.5%
- viability, T/C [27]: 46%
- viability, T/C [28]: 40.7%
- viability, T/C [29]: 30.4%
- viability, T/C [30]: 28.4%
- viability, T/C [31]: 38.2%
- viability, T/C [32]: 32.6%
- viability, T/C [33]: 31.9%
- viability, T/C [34]: 26.4%
- viability, T/C [35]: 27.7%
- viability, T/C [36]: 17.4%

- IC50 (second compound 0.0316 µM): > 100 nM
- IC50 (second compound 0.1 µM): > 100 nM
- IC50 (second compound 0.316 µM): > 100 nM
- IC50 (second compound 1 µM): > 100 nM
- IC50 (second compound 3.16 µM): > 100 nM
- IC50 (second compound 10 µM): < 0.316 nM
Structure (SMILES): Cn1ncnc1[C@H]1c2n[nH]c(=O)c3cc(F)cc(c23)N[C@@H]1c1ccc(F)cc1 + Cc1nc(NC(=O)N2CCCC2C(N)=O)sc1-c1ccnc(C(C)(C)C(F)(F)F)c1
- viability, T/C (second compound 0.0316 µM, first compound 0.000316 µM): 112%
- viability, T/C (second compound 0.0316 µM, first compound 0.001 µM): 90%
- viability, T/C [37]: 97.6%
- viability, T/C [38]: 96.1%
- viability, T/C [1]: 93.9%
- viability, T/C [2]: 95.7%
- viability, T/C (second compound 0.1 µM, first compound 0.000316 µM): 98.7%
- viability, T/C (second compound 0.1 µM, first compound 0.001 µM): 103%
- viability, T/C [39]: 98.2%
- viability, T/C [40]: 97.8%
- viability, T/C [7]: 92.6%
- viability, T/C [8]: 87%
- viability, T/C (second compound 0.316 µM, first compound 0.000316 µM): 97.7%
- viability, T/C (second compound 0.316 µM, first compound 0.001 µM): 100%
- viability, T/C [41]: 110%
- viability, T/C [42]: 90.7%
- viability, T/C [13]: 102%
- viability, T/C [14]: 80.8%
- viability, T/C (second compound 1 µM, first compound 0.000316 µM): 92.2%
- viability, T/C (second compound 1 µM, first compound 0.001 µM): 86.3%
- viability, T/C [43]: 82.9%
- viability, T/C [44]: 72.5%
- viability, T/C [19]: 79.1%
- viability, T/C [20]: 71.5%
- viability, T/C (second compound 3.16 µM, first compound 0.000316 µM): 59.6%
- viability, T/C (second compound 3.16 µM, first compound 0.001 µM): 61%
- viability, T/C [45]: 59%
- viability, T/C [46]: 54.9%
- viability, T/C [25]: 59.6%
- viability, T/C [26]: 49.4%
- viability, T/C (second compound 10 µM, first compound 0.000316 µM): 35.9%
- viability, T/C (second compound 10 µM, first compound 0.001 µM): 36.8%
- viability, T/C [47]: 38.2%
- viability, T/C [48]: 34.2%
- viability, T/C [31]: 33.2%
- viability, T/C [32]: 28.3%

From PubChem BioAssay AID1963982 (Molecular Pharmacology Branch, DTP, NCI, 2024)
